Reference: US7651692B2, “Use of extracts of the plant Litchi chinensis sonn” (Cognis France S.A., priority 2001, dated 2010)
Where two headings read alike, the source gives them in different places.

Assays:
elastase = experiment: Inhibition of elastase activity; assay type: biochemical; details: concentration 0.1 % (w/v)
Procedure: Serine proteases, such as elastase for example, degrade elastin, proteoglycans and collagen and thus weaken the connective tissue. […] The incubation time was 30 mins. at room temperature. The inhibition was followed photometrically at 410 nm; 1′α1-antitrypsin was used as positive standard.

human fibroblasts [1] = assay type: cell-based
Procedure: Human fibroblasts were inoculated with 10% by weight fetal calf serum in a defined nutrient medium (DMEM=Dulbecco Minimum Essential Medium, a product of Life Technologie S.a.r.l.) and incubated for 24 h at 37° C. in a 5% CO2 atmosphere. The nutrient medium containing fetal calf serum was then replaced by a nutrient medium of DMEM without fetal calf serum. Active substance in the form of the two extracts of the pericarp of Litchi chinensis Sonn. was then added to this nutrient medium in various concentrations.

[2] = Fenton's reaction: hydroxylation of salicylic acid by hydroxyl radicals; details: formation of hydroxysalicylic acid, optical density 490 nm
Source text: (§1) The first test substrate selected was diphenyl picryl hydrazyl (DPPH), a purple-red colored stable radical which changes into its colorless leuco derivative on contact with radical trappers. The change of color can be followed photometrically. The test results are set out in Table 3 (DPPH Test). In another test, the hydroxylation of salicylic acid by hydroxyl radicals (from the reaction of hydrogen peroxide with iron(III) ions and EDTA) was investigated as a reference system. This reaction can also be photometrically investigated because the hydroxylation product is reddish in color. The influence of the extracts on the formation of hydroxysalicylic acid was measured at an optical density of 490 nm. In a third and final test, xanthine oxidase was selected as the test system. Under oxidative tress, the enzyme converts purine bases, for example adenine or guanine, into […]. The oxygen radicals intermediately formed can be detected by reaction with luminol (via the luminescence) and quantitatively determined. The luminescence output diminishes in the presence of substances with radical-trapping properties.

xanthine oxidase = experiment: Luminol Test with xanthine oxidase (biochemical test)
Source text: as §1

[3] = Luminol + microperoxydase (biochemical test)
[4] = DPPH Test (chemical test, activity towards free radicals)
Source text: as §1

MMP-1 = experiment: Inhibition of collagenase synthesis: MMP-1 poured out by fibroblasts; assay type: cell-based, human; details: 0.1 μm
Procedure: (§2) This test is used to evaluate the ability of the litchi extract to reduce the toxic effects of UV-A radiation on human fibroblasts cultivated in vitro. To this end, both the quantity of the enzyme MMP-1 (matrix metalloproteinase) poured out and the quantity of the natural enzyme inhibitor TIMP-1 are determined. UV-A radiation is used in this test because it can penetrate into the dermis and induce oxidative stress which leads to ageing of the skin.
(§3) To this end, the fibroblasts are cultivated in a precisely defined medium containing fetal calf serum. […] After further incubation for one day at 37° C./5% CO2, the culture medium is replaced by a salt solution and the fibroblasts are exposed to UV-A (15 J/cm^2, lamp: SOL500, Dr. Höhnle. filter: H1, radiometer: Vibert Lourmat). After the exposure, the fibroblasts are incubated for another two days. The MMO-1 and TIMP-1 contents of the supernatant medium are determined with an Amersham test kit (Kit No. RPN2610 and RPN2611). No extract was added to the control.

TIMP-1 = TIMP-1 poured out by fibroblasts; assay type: cell-based, human; details: concentration not printed in this line
Procedure: as §2, §3

[5] = system: human leucocytes (neutrophilic granulocytes); experiment: Anti-inflammatory activity: respiratory burst, released oxygen radicals; assay type: cell-based; details: 0.001% by weight
Procedure: Method: Anti-inflammatory activity was studied on a cell line of human leucocytes (neutrophilic granulocytes). To this end, the cells were incubated with various concentrations of extracts of Example 1 to be tested, after which a respiratory burst was induced by yeast cell extract (“zymosan”) by activation of the cells for 30 mins. with 0.1 ml zymosan. The content of oxygen radicals intermediately formed was determined for 60 seconds by reaction with luminol via the luminescence and quantitatively evaluated. The luminescence yield falls in the presence of substances with radical-trapping properties. The percentage of released radicals was determined against a reference substance (Minocycline—a radical trapper). The results are expressed in % relative to the control. For control purposes, the number of intact cells was determined with a particle counter and is shown in % by comparison with the control.

human keratinocytes = experiment: Cell protecting effect against UV-B in human keratinocytes cultivated in vitro; assay type: cell-based; details: UV-B 50 mJ/cm^2; 0.001% substance; level in % by comparison with the control
Procedure: Method: The effect of UV-B radiation was investigated in vitro in keratinocytes by determining the release of the cytoplasm enzyme LDH (lactate dehydrogenase). This enzyme serves as a marker for cell damage.
To carry out the tests, a defined medium containing fetal calf serum was inoculated with the keratinocytes and the plant extract (diluted with saline solution) was added 72 hours after the inoculation.
The keratinocytes were then exposed to a dose of UV-B (50 mJ/cm^2-tubes: DUKE FL40E).
After incubation for another day at 37° C./5% CO2, the LDH content in the supernatant was determined. The LDH (lactate dehydrogenase) content was determined by an enzyme reaction (kit used to determine LDH levels from Roche). The number of adhering keratinocytes was determined (after trypsin treatment) with a particle counter.

Human plasmin = Human plasmin (Homo sapiens, UniProt P00747); experiment: Plasmin inhibition after addition of the synthetic substrate; assay type: biochemical; details: 50 μg/ml
Human plasmin, sequence (P00747 581-810 limits assumed): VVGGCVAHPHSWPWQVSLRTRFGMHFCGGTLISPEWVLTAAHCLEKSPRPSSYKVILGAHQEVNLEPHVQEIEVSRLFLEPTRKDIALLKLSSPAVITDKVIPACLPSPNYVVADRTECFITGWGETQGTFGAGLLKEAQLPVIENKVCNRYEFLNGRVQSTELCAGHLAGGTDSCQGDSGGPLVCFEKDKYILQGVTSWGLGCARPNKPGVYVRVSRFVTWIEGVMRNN
Human plasmin, sequence (P00747 97-580 partner limits assumed): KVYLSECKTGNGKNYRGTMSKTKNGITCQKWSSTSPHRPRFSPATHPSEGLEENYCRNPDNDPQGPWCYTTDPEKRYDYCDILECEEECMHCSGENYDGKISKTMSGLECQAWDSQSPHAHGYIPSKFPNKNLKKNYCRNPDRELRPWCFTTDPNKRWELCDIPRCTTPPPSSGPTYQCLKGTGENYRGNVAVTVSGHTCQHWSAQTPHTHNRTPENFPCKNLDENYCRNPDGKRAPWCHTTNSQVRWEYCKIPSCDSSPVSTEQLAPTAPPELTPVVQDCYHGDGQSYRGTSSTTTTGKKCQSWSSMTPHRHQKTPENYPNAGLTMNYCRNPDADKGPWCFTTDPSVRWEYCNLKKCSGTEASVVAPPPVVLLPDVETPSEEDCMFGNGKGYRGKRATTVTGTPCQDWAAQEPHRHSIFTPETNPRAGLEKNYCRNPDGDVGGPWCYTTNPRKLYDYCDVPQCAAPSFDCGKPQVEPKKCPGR
Procedure: Thereafter, either synthetic substrate, especially “Val-Leu-paranitroanilide”, a product of Chromogenix, or natural pro-MMP3 obtained from Merck-Eurolab was added to the mixture. In the case of the synthetic substrate, absorption at 405 nm was measured every 5 minutes over a period of 30 minutes and the release of paranitroanilines was thus determined.
The inhibition of enzymatic activity was tested against a control with no substrate and against a reference substance, more particularly Aprotinine, a product of Sigma.

human MMP-1 = target: T1, human MMP-1 (Homo sapiens, UniProt P03956); experiment: Inhibition of collagenase activity (MMP-1); assay type: biochemical; details: concentration 50 nmol
T1 sequence (P03956 100-469): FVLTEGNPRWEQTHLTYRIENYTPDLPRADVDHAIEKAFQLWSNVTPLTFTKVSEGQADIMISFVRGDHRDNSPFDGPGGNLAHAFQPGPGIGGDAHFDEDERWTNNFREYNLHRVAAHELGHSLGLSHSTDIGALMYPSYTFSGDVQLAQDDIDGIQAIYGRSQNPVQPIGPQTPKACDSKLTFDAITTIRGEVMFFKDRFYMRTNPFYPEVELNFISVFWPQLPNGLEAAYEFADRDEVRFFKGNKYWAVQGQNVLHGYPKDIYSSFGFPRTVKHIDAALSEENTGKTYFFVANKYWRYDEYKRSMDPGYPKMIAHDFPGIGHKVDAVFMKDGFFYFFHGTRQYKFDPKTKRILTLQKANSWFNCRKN
Procedure: After exposure to the sun, dermal fibroblasts of elderly people pour out collagenases—also known as matrix metalloprotease (MMP). […] The incubation time was 60 mins. at room temperature. The hydrolysis of the substrate was determined by fluorescence spectrometry at λem=393 nm (λex=328 nm). The […] TIMP-1 (MMP inhibitor occurring naturally in tissue) was used as the comparison standard.

human fibroblasts [6] = experiment: Cell protecting effect against UV-A on human fibroblasts cultivated in vitro; assay type: cell-based; details: UV-A 20 J/cm^2; 0.0003% substance; level in % by comparison with the control
Procedure: Method: To carry out these tests, a defined culture medium containing the fibroblasts is inoculated with foetal calf serum and added to the plant extract (in the defined medium containing 10% fetal calf serum) 72 hours after inoculation.
After incubation for 48 hours at 37° C./5% CO2, the culture medium was replaced by saline solution (physiological NaCl solution) and the fibroblasts were exposed to a dose of UV-A (365 nm, 20 J/cm^2; tubes: MAZDA FLUOR TFWN40).
After the exposure to UV-A, the MDA level (malonaldialdehyde level) in the supernatant sodium chloride solution was quantitatively determined by reaction with thiobarbituric acid.

[7] = After exposure to UV-A (15 J/cm^2)

With “1′α1-Antitrypsin: natural elastase inhibitor used as positive standard” the “Elastase inhibition in %” value (elastase) was 68%.

In the case of `O=C1O[C@H]([C@@H](O)CO)C(O)=C1O` [Ascorbic acid], the “LD50 in % (w/v), ATP” value (human fibroblasts [1]; human fibroblasts, 3 days, intracellular ATP content) is reported as 0.0056 % (w/v), the “LD50 in % (w/v), Proteins” value (human fibroblasts [1]; human fibroblasts, 3 days, protein content (Bradford)) is reported as 0.0055 % (w/v) and the “EC50 in %, Fenton's reaction” value [2] is reported as 0.1%. The “EC50 in %, Luminol” value (xanthine oxidase) was 0.0006%, the “EC50 in %, NBT” value (NBT (biochemical test)) was 0.5909% and the “EC50 in %, Luminol + microperoxydase” value [3] was 0.0058%. The “EC50 in %, DPPH Test” value [4] was 0.0013%.

In the case of `C[C@@H]1C[C@H]2[C@@H]3CCC4=CC(=O)C=C[C@]4(C)[C@@]3(F)[C@@H](O)C[C@]2(C)[C@@]1(O)C(=O)CO` [Dexamethasone], the MMP-1 poured out (MMP-1; [7]) is reported as 7 ng/mL, the MMP-1 poured out (MMP-1; Without exposure to UV-A) is reported as 2 ng/mL and the TIMP-1 poured out (TIMP-1; [7]) is reported as 19 ng/mL. For the same compound, the TIMP-1 poured out (TIMP-1; Without exposure to UV-A) was 39 ng/mL.

For `CN(C)c1ccc(O)c2c1C[C@H]1C[C@H]3[C@H](N(C)C)C(O)=C(C(N)=O)C(=O)[C@@]3(O)C(O)=C1C2=O` [Minocycline], the “No. of intact cells” value ([5]; in % by comparison with the control) was 100% and the “ROS content (%/control)” value ([5]; zymosan-induced respiratory burst) was 28 %/control.

In the case of `CC(=O)Oc1ccccc1C(=O)O` [aspirin], the LDH released (human keratinocytes) is reported as 68% and the No. of keratinocytes (human keratinocytes) is reported as 33%.

With Aprotinine the “% Inhibition compared with the control (plasmin)” value (Human plasmin) was 100%.

For “TIMP-1: MMP inhibitor occurring naturally in tissue, used as the comparison standard”, the “MMP-1 Inhibition in %” value (human MMP-1) was 93%.

With tocopherol the “LD50 in % (w/v), ATP” value (human fibroblasts [1]) was “Nt toxic up”, the “LD50 in % (w/v), Proteins” value (human fibroblasts [1]) was “Not toxic up” and the “EC50 in %, Luminol” value (xanthine oxidase) was “No effect up”. The “EC50 in %, NBT” value (NBT (biochemical test)) was “No effect up”, the “EC50 in %, Luminol + microperoxydase” value [3] was “No effect up” and the Cell proteins (human fibroblasts [6]) was 97%. For the same compound, the GSH/protein (human fibroblasts [6]) was 78%, the MDA released (human fibroblasts [6]) was 11% and the “EC50 in %, DPPH Test” value [4] was 0.0067%.
